Measurements reported in ChEMBL document CHEMBL1128869, “-Mercaptoacyl dipeptides that inhibit angiotensin converting enzyme and neutral endopeptidase 24.11” (Bioorg Med Chem Lett, 1995).

Experiments:
Neprilysin = biological target: T1, Neprilysin (Rattus norvegicus, UniProt P07861); experiment: Inhibition of neutral endopeptidase (NEP) 24.11
T1 sequence (P07861 whole entry): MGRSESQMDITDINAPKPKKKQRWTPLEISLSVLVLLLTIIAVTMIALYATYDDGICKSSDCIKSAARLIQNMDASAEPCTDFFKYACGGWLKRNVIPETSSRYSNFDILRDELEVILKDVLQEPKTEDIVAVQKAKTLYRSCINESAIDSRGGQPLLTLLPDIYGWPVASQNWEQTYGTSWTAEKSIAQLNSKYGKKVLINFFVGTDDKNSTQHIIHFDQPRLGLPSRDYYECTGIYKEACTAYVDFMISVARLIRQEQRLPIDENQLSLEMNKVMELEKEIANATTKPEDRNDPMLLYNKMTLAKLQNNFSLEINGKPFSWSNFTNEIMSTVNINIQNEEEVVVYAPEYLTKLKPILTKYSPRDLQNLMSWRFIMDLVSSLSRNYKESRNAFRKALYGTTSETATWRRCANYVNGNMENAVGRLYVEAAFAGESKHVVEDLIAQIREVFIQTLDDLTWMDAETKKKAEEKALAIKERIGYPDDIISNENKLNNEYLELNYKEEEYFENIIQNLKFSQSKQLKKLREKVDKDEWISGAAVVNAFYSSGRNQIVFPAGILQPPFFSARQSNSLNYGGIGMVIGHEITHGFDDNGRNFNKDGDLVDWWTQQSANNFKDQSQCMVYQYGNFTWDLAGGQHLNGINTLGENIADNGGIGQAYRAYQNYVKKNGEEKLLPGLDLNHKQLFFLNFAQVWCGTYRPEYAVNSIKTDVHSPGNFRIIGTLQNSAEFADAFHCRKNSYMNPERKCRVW

[1] = biological target: Angiotensin-converting enzyme (Homo sapiens, UniProt P12821); experiment: Inhibition of angiotensin converting enzyme (ACE); type: protein assay
Rattus norvegicus [2] = species: Rattus norvegicus; experiment: Compound concentration that causes inhibition of angiotensin-I (AI) induced pressor response in normotensive rats after intra arterial injection; type: functional
Rattus norvegicus [3] = species: Rattus norvegicus; experiment: Time taken for 50 % or more inhibition of angiotensin-I (AI) induced pressor response in normotensive rats; type: functional
Rattus norvegicus [4] = species: Rattus norvegicus; experiment: Concentration that causes inhibition of angiotensin-I (AI) induced pressor response in normotensive rats after intra arterial injection; type: functional

SMILES	IC50 (Neprilysin)	IC50 [1]	Inhibition (Rattus norvegicus [2])	Duration of action (Rattus norvegicus [3])	Inhibition (Rattus norvegicus [4])
O=C(N[C@@H](Cc1ccc(-c2ccccc2)cc1)C(=O)N1CCC[C@H]1C(=O)O)[C@H](S)c1ccc2c(c1)OCO2	222 nM	378 nM	–	–	–
CC(C)[C@H](S)C(=O)N[C@@H](Cc1ccc(-c2ccccc2)cc1)C(=O)N1CCC[C@H]1C(=O)O	500 nM	319 nM	–	–	–
O=C(N[C@@H](Cc1ccc(-c2ccccc2)cc1)C(=O)N1CCC[C@H]1C(=O)O)[C@@H](S)Cc1ccccc1	117 nM	57 nM	–	50 min	10 mg/kg
O=C(N[C@@H](Cc1ccc2ccccc2c1)C(=O)N1CCC[C@H]1C(=O)O)[C@H](S)Cc1ccccc1	583 nM	304 nM	–	–	–
O=C(N[C@@H](Cc1ccc(-c2ccccc2)cc1)C(=O)N1CCC[C@H]1C(=O)O)[C@@H](S)c1ccc2c(c1)OCO2	385 nM	183 nM	–	–	–
O=C(N[C@@H](Cc1cccc2ccccc12)C(=O)N1CCC[C@H]1C(=O)O)[C@H](S)Cc1ccccc1	> 1000 nM	27 nM	–	–	–
O=C(O)[C@H](Cc1ccc(-c2ccccc2)cc1)NC(=O)[C@@H](S)Cc1ccccc1	654 nM	80 nM	–	–	–
O=C(N[C@@H](Cc1cccc2ccccc12)C(=O)N1CCC[C@H]1C(=O)O)[C@@H](S)Cc1ccccc1	> 1000 nM	14 nM	–	–	–
O=C(N[C@@H](Cc1ccc2ccccc2c1)C(=O)N1CCC[C@H]1C(=O)O)[C@@H](S)Cc1ccccc1	705 nM	18 nM	–	25 min	10 mg/kg

Now those with a lower IC50 (Neprilysin), led by results:

IC50 (Neprilysin)	IC50 [1]	SMILES	Inhibition (Rattus norvegicus [2])	Duration of action (Rattus norvegicus [3])	Inhibition (Rattus norvegicus [4])
43 nM	100 nM	CC(C)[C@H](S)C(=O)N[C@@H](Cc1ccc(-c2ccccc2)cc1)C(=O)N[C@@H](CO)C(=O)O	–	–	–
33 nM	175 nM	CC(C)[C@H](S)C(=O)N[C@@H](Cc1ccc(-c2ccccc2)cc1)C(=O)N[C@H](C(=O)O)C(C)C	10 mg/kg	70 min	–
100 nM	688 nM	O=C(N[C@@H](Cc1ccc(-c2ccccc2)cc1)C(=O)O)[C@H](S)Cc1ccccc1	–	–	–
59 nM	229 nM	O=C(N[C@@H](Cc1ccc(-c2ccccc2)cc1)C(=O)N1CCC[C@H]1C(=O)O)[C@H](S)Cc1ccccc1	–	–	–
28 nM	62 nM	CC(C)[C@H](S)C(=O)N[C@@H](Cc1ccc(-c2ccccc2)cc1)C(=O)N[C@@H](Cc1ccc(O)cc1)C(=O)O	–	60 min	10 mg/kg
